Results on ten compounds are retold here after ChEMBL document CHEMBL1201862, “PubChem BioAssay data set” (2004).

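Method: 48-hour compound exposure of cells in 96-well plates, five concentrations, linear interpolation of endpoints. GI50 is the concentration that inhibits growth by half.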 The source made the active and inactive calls. Rule as the data show it: active = GI50 up to about 1.1 µM and inactive = higher.

Experiment in all cases: NCI tumour cell line growth inhibition, 48 h
Assay [1] relates to TK-10.
For assay [2], the system named is HL-60.
Assay [3] relates to ACHN.
Assay [4] concerns SW-620.
For assay [5], the system named is NCI-H522.
Assay [6] has as its system SNB-75.
The subject of assay [7] is SK-MEL-5.
In assay [8] the test system is BT-549.
Assay [9] concerns EKVX.
In assay [10] the test system is U-251.
Assay [11] has as its system Hs-578T.
The subject of assay [12] is NCI-H460.
Assay [13] relates to OVCAR-8.
The subject of assay [14] is PC-3.
In assay [15] the test system is T47D.
Assay [16] deals with OVCAR-4.
In assay [17] the test system is UACC-62.
Assay [18] has as its system 786-0.
The subject of assay [19] is UO-31.
Assay [20] has as its system HCC 2998.

For `NC(=O)N/N=C(/CC1C(=O)Oc2ccccc21)c1ccccc1O` (stereo not given), the GI50 in assay [1] was 53.8 µM (inactive); in [2], 19.6 µM (inactive); in assay [3], 39.7 µM (inactive); in assay [4] it was 45.7 µM (inactive); in assay [5] it was > 100 µM (inactive); in assay [6] it was 41.3 µM (inactive). The GI50 in assay [7] was 58.6 µM (inactive); in [8] it was 24.2 µM (inactive); in [9], 87.5 µM (inactive); in [10], 30.1 µM (inactive); in [11], > 100 µM (inactive); in assay [12], 39.4 µM (inactive). In addition, the GI50 in assay [13] was 28.6 µM (inactive); in assay [14] it was > 100 µM (inactive); in assay [15], 19.5 µM (inactive); in assay [16], 41.7 µM (inactive); in [17], 19.1 µM (inactive); in [18] it was 33.4 µM (inactive). Moreover, the GI50 in assay [19] is 41.1 µM (inactive); in [20] it was 35 µM (inactive).

Consider `CCOC(=O)CCC(NC(=O)c1ccc(Oc2nc3ccccc3nc2C(=O)OCC)cc1)C(=O)OCC` (stereo not given), for which the GI50 in assay [1] was > 100 µM (inactive); in assay [2], > 100 µM (inactive); in [3], > 100 µM (inactive); in [4] it was > 100 µM (inactive); in assay [5], > 100 µM (inactive); in [6], 21.5 µM (inactive). For the same compound, the GI50 in [7] is > 100 µM (inactive); in assay [8] it was > 100 µM (inactive); in assay [9], > 100 µM (inactive); in assay [10], 71.3 µM (inactive); in assay [11], > 100 µM (inactive); in assay [12], > 100 µM (inactive). The GI50 is 41.2 µM (inactive) in assay [13]; > 100 µM (inactive) in assay [14]; > 100 µM (inactive) in assay [15]; > 100 µM (inactive) in assay [16]; > 100 µM (inactive) in assay [17]; 37.2 µM (inactive) in [18]. Besides, the GI50 in [19] and in assay [20] was > 100 µM (inactive) in each case.

Turning to `CCCCCCCCCC[C@H](O)[C@H]1CC[C@@H]([C@@H](O)CC[C@H](O)[C@@H]2CCC(CCCCCCC[C@@H](O)CC3=C[C@H](C)OC3=O)O2)O1` (stereo not given in full), the GI50 in assay [1] is 1.59 µM (inactive); in assay [2] it was 1.44 µM (inactive); in assay [3] it was 1.21 µM (inactive); in [4], 1.69 µM (inactive); in [5], 3.7 µM (inactive); in assay [6] it was 2.47 µM (inactive). For the same compound, the GI50 is 1.5 µM (inactive) in assay [7]; 5.08 µM (inactive) in assay [8]; 1.89 µM (inactive) in assay [9]; 1.97 µM (inactive) in assay [10]; 1.81 µM (inactive) in assay [11]; 1.86 µM (inactive) in [12]. The GI50 in [13] was 1.95 µM (inactive); in [14], 1.57 µM (inactive); in assay [15], 3.08 µM (inactive); in assay [16], 4.4 µM (inactive); in assay [17], 1.02 µM (active); in assay [18], 1.79 µM (inactive). The GI50 in [19] was 0.00416 µM (active); in [20] it was 4.33 µM (inactive).

For `COc1ccc(-c2cn3c(nc4ccccc43)c(C)n2)cc1`, the GI50 in assay [1] is 58.9 µM (inactive); in assay [2], > 56.1 µM (inactive); in assay [3] it was 45.2 µM (inactive); in [4], > 100 µM (inactive); in assay [5], 39.1 µM (inactive); in assay [6], > 50.8 µM (inactive). Further, the GI50 in [7] was 21.5 µM (inactive); in assay [8], 33.7 µM (inactive); in assay [9], 83 µM (inactive); in assay [10] it was 50.4 µM (inactive); in assay [11], 41.6 µM (inactive); in assay [12], 60.1 µM (inactive). Moreover, the GI50 in assay [13] is 34.4 µM (inactive); in [14], 72.3 µM (inactive); in assay [15], 8.3 µM (inactive); in assay [16], 47.6 µM (inactive); in [17], 35.3 µM (inactive); in assay [18] it was 41 µM (inactive). The results for the GI50 in assay [19] and in assay [20] were 13.7 µM (inactive) and > 100 µM (inactive), respectively.

As for `CC(C)CC(=O)OC[n+]1ccc(-c2c(COC(=O)NC(C)C)c(COC(=O)NC(C)C)c3n2CCC3)cc1`, the GI50 in assay [1] was > 100 µM (inactive); in assay [2] it was 65.8 µM (inactive); in assay [3] it was 38.3 µM (inactive); in assay [4], > 100 µM (inactive); in assay [5], > 100 µM (inactive); in assay [6], > 100 µM (inactive). In addition, the GI50 is > 100 µM (inactive) in assay [7]; > 100 µM (inactive) in assay [8]; > 100 µM (inactive) in [9]; > 100 µM (inactive) in assay [10]; > 100 µM (inactive) in [11]; 76.9 µM (inactive) in assay [12]. Further, the GI50 in assay [13] is > 100 µM (inactive); in [14], > 100 µM (inactive); in [15], > 100 µM (inactive); in [16], > 100 µM (inactive); in assay [17] it was 83.8 µM (inactive); in assay [18], > 100 µM (inactive). Also, the GI50 in assay [19] and in [20] was > 100 µM (inactive) in each case.

As to `COc1ccc(NC(=O)/C(=N/NC(N)=S)C2C(=O)NC(=S)NC2=O)c(OC)c1`, the GI50 in assay [1], in assay [2], in assay [3], in [4], in [5] and in assay [6] was > 100 µM (inactive) in each case. Also, the GI50 in assay [7], in [8], in [9], in assay [10], in [11] and in [12] was > 100 µM (inactive) in each case. For the same compound, the GI50 in assay [13], in assay [14], in [15], in [16], in [17] and in [18] was > 100 µM (inactive) throughout. In addition, the GI50 in [19] and in assay [20] was > 100 µM (inactive) each time.

Regarding `Cc1cccc(O)c1-c1nnc(CCCCCCCCc2nnc(-c3c(C)cccc3O)n2N)n1N`, the GI50 in assay [1] was > 41.4 µM (inactive); in [2], 0.139 µM (active); in assay [3], > 85.7 µM (inactive); in assay [4], > 100 µM (inactive); in assay [5], 1.07 µM (active); in assay [6], 25 µM (inactive). Further, the GI50 in assay [7] was > 100 µM (inactive); in assay [8] it was 15 µM (inactive); in assay [9], > 67.3 µM (inactive); in assay [10] it was 23.2 µM (inactive); in [11] it was 39.9 µM (inactive); in [12], 24.3 µM (inactive). Further, the GI50 is 1.86 µM (inactive) in assay [13]; > 100 µM (inactive) in assay [14]; > 100 µM (inactive) in assay [15]; 18.7 µM (inactive) in [16]; 66.7 µM (inactive) in assay [17]; 2.67 µM (inactive) in [18]. Besides, the GI50 in assay [19] is 68.5 µM (inactive); in assay [20], > 100 µM (inactive).

For `COc1c(OC)c(O)c2c(=O)c(OC)c(-c3ccc4c(c3)OCO4)oc2c1O`, the GI50 in assay [1] was > 100 µM (inactive); in assay [2] it was 19.5 µM (inactive); in [3], > 100 µM (inactive); in [4], > 100 µM (inactive); in assay [5] it was > 100 µM (inactive); in assay [6], > 100 µM (inactive). The GI50 in assay [7] was 38.2 µM (inactive); in assay [8] it was > 100 µM (inactive); in assay [9], > 100 µM (inactive); in assay [10], > 100 µM (inactive); in assay [11] it was > 100 µM (inactive); in assay [12], > 100 µM (inactive). Further, the GI50 in assay [13] was > 100 µM (inactive); in assay [14] it was > 100 µM (inactive); in [15], 24.5 µM (inactive); in assay [16], > 100 µM (inactive); in assay [17], > 100 µM (inactive); in assay [18] it was > 100 µM (inactive). Further, the GI50 in assay [19] and in assay [20] was > 100 µM (inactive) throughout.

Regarding `CC(C)C1CC[C@H](C)C[C@@H]1OC(=O)C(C(=O)O[C@H]1C[C@@H](C)CCC1C(C)C)C(O)[C@@H]1OC(C)(C)O[C@H]1C1COC(C)(C)O1` (stereo not given in full), the GI50 was 20 µM (inactive) in assay [1]; 16.7 µM (inactive) in assay [2]; 16.6 µM (inactive) in [3]; 14.2 µM (inactive) in assay [4]; 1.58 µM (inactive) in [5]; 15.7 µM (inactive) in assay [6]. The GI50 in assay [7] is 15.8 µM (inactive); in [8], 19 µM (inactive); in assay [9], 20.8 µM (inactive); in [10], 14.2 µM (inactive); in assay [11], 15 µM (inactive); in [12], 15 µM (inactive). In addition, the GI50 in [13] is 21 µM (inactive); in assay [14], > 10 µM (inactive); in assay [15], 13.1 µM (inactive); in assay [16], 26 µM (inactive); in assay [17], 18.8 µM (inactive); in [18] it was 16.6 µM (inactive). Besides, the figures for the GI50 in [19] and in assay [20] were 17.3 µM (inactive) and 13.8 µM (inactive), respectively.

For the compound `CCOCC(=O)N[C@H]1CCc2cc(OC)c(OC)c(OC)c2-c2ccc(OC)c(=O)cc21`, the GI50 in assay [1] was 2.46 µM (inactive); in assay [2], < 0.01 µM (active); in assay [3] it was 0.0962 µM (active); in assay [4] it was 0.0169 µM (active); in [5], 0.0143 µM (active); in assay [6], < 0.0191 µM (active). For the same compound, the GI50 is 0.0133 µM (active) in assay [7]; < 0.0321 µM (active) in [8]; > 15.8 µM (inactive) in assay [9]; 0.0173 µM (active) in assay [10]; 0.0203 µM (active) in assay [11]; 0.0165 µM (active) in assay [12]. In addition, the GI50 in assay [13] is 0.0194 µM (active); in assay [14] it was < 0.0154 µM (active); in [15], > 100 µM (inactive); in assay [16], 3.62 µM (inactive); in assay [17], 0.0153 µM (active); in [18] it was 0.0199 µM (active). Also, the GI50 in [19] was 3.56 µM (inactive); in [20] it was 0.0141 µM (active).
